Source: US20260158111A1, “USE OF TGF IN THE PREVENTION VIRUS INFECTION OF THE RESPIRATORY TRACT” (FrieslandCampina Nederland B.V., priority 2021, published 2026)

System: Detroit D562 cells
Test: Airway epithelial cells pretreated with component, then stimulated with viral infection proxy poly I:C; cytokine ELISA of supernatant
Format: cell-based
Details: Example 7; Galunisertib alone 100 nM
Method: Detroit […] cells (ATCC-CCL138) were cultured in a T75 flask (Corning cat. No. 430641) in minimum essential medium (MEM, Invitrogen Catalog No. 21090-022) with 1× non-essential amino acids (Invitrogen cat. No. 11140-035), 10 mM sodium pyruvate (Invitrogen cat. No. 11360-039), 2 mM glutamax (Invitrogen cat. No. 35050-038), 1000 U/ml antibiotics penicillin, 1000 μg/ml […] and 10% serum (Hyclone, GE healthcare Life Sciences, lot. No. RB35936), henceforth called 10% complete medium with serum (CMS). Cells were trypsinized when confluency of 80% or greater was achieved, using 3 ml of Trypsin-EDTA (Invitrogen, cat. No. 25200-056) and resuspended into 12 ml of 10% CMS. Cells were counted and seeded at 6*10^4 cells/ml in three 24-well tissue culture treated plate (Corning cat. No. 3527) with 1 ml per well. These were cultured for one week till confluent. […] All the components were calibrated on protein concentration and added on cells at the calculated total protein concertation of 1 mg/ml on dry matter. […] ELISA kits from R&D Systems (Biotechne) were used to quantify cytokines IL-8/CXCL8 (DY208), IL-6 (DY206), TNF-α (DY210) and IFN-λ1/3 (DY1598B) according to the manufacturer's guidelines. Absorbance was measured at 450 nm and corrected for at 570 nm using the Biorad iMark plate reader & Imark software version 6.2. Cytokines were quantified before and after the addition of poly I:C.

Cc1cccc(-c2nn3c(c2-c2ccnc4ccc(C(N)=O)cc24)CCC3)n1 [Galunisertib]
effect of Galunisertib alone on the cells: had no effect on the cells
